Measurements: article PMC5599593, “A general reaction mechanism for carbapenem hydrolysis by mononuclear and binuclear metallo-β-lactamases” (Nature Communications, 2017)

What was measured:
Format in all cases: biochemical
[1] = target: T1, mono-Zn(II)-Sfh-I (Serratia fonticola, UniProt Q9RMI1); assay: stopped-flow absorption (pre-steady state); RFQ Zn K-edge XAS of ES complex; settings: 50 mM Hepes pH 7, 4 °C
T1 construct: gene sfhI; expressed from pET-26b; anion exchange and size exclusion purification; mono-Zn(II) form
T1 sequence (Q9RMI1 entry or part of it): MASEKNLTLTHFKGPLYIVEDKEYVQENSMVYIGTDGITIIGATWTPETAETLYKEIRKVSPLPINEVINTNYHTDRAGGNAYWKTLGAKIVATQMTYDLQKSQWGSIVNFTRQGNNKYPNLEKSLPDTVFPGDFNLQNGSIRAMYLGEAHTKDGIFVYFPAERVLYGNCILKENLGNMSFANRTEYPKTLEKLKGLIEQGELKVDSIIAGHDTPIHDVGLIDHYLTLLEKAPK

[2] = target: T2, bi-Zn(II)-NDM-1 (Klebsiella pneumoniae, UniProt C7C422); assay: stopped-flow absorption, single turnover; settings: 100 mM Hepes pH 7.5, 200 mM NaCl, 300 µM ZnSO4, 6 °C
T2 construct: gene blaNDM-1
T2 sequence (C7C422 27-270 limits assumed): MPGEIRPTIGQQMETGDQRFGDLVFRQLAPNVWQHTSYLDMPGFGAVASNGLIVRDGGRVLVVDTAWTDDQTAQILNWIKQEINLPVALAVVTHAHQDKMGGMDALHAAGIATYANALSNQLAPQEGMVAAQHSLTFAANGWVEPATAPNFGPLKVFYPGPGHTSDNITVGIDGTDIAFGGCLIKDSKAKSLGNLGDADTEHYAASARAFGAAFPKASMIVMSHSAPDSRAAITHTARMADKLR

[3] = target: T3, bi-Zn(II)-BcII (Bacillus cereus, UniProt P04190); assay: rapid-freeze-quench X-ray absorption spectroscopy; settings: 10 ms reaction
T3 construct: gene blm; expressed as N-terminal GST fusion, GST removed with thrombin; bi-Zn(II) form
T3 sequence (P04190 31-257): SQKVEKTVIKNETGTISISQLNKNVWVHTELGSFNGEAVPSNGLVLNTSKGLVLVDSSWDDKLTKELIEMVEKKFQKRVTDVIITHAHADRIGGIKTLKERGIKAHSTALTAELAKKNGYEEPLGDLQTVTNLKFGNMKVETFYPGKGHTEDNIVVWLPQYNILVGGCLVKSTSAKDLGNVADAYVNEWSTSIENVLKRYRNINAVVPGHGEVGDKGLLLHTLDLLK

[4] = target: T2, bi-Zn(II)-NDM-1; assay: stopped-flow absorption; settings: 100 mM Hepes pH 7.5, 200 mM NaCl, 300 µM ZnSO4, 6 °C

Row | SMILES | stopped-flow absorption (pre-steady state); RFQ Zn K-edge XAS of ES complex [1] | stopped-flow absorption, single turnover [2] | rapid-freeze-quench X-ray absorption spectroscopy [3] | stopped-flow absorption [4]
1 | C[C@@H](O)[C@H]1C(=O)N2C(C(=O)O)=C(SCCN=CN)C[C@H]12 [imipenem] | imipenem hydrolysis by the mono-Zn(II) B2 lactamase Sfh-I | Hydrolysis of imipenem by bi-Zn(II)-NDM-1 under single turnover conditions | X-ray absorption spectroscopy to analyse hydrolysis of imipenem by the B1 enzyme bi-Zn(II)-BcII | 
2 | C[C@@H](O)[C@H]1C(=O)N2C(C(=O)O)=C(S[C@@H]3CN[C@H](C(=O)N(C)C)C3)[C@H](C)[C@H]12 [meropenem] |  |  |  | We also assayed hydrolysis of another carbapenem, meropenem, by bi-Zn(II)-NDM-1
